Values of other authors, collected in patent US20160022604A1, “DIRECTLY COMPRESSED OSPEMIFENE COMPOSITIONS” (CADILA HEALTHCARE LIMITED, priority 2014, published 2016).

Tests used:
[1] = classical hormonal tests
[2] = experimental models and human volunteers

For OCCOc1ccc(/C(=C(/CCCl)c2ccccc2)c2ccccc2)cc1 [Ospemifene, 2-[4-(4-chloro-1,2-diphenylbut-1-enyl)phenoxy]ethanol], the “estrogenic and antiestrogenic effects” value [1] is listed as “relatively weak” and the “total and LDL cholesterol levels” value [2] is listed as “decreases”.
